# Measured values taken from patent US20060111378A1, “Substituted 2-anilinopyrimidines as cell-cycle-kinase or receptor-tyrosine-kinase inhibitors, their production and use as pharmaceutical agents” (priority 2004, published 2006).
# Legend:
# CDK1/CycB = biological target: T1, CDK1/CycB (Homo sapiens, UniProt P06493); experiment: CDK1/CycB kinase assay; type: biochemical; conditions: histone IIIS substrate, 0.5 μm ATP
# T1 construct: GST; purchased ProQinase GmbH, Freiburg; host or cells: baculovirus-infected insect cells (Sf9)
# T1 sequence (P06493 whole entry): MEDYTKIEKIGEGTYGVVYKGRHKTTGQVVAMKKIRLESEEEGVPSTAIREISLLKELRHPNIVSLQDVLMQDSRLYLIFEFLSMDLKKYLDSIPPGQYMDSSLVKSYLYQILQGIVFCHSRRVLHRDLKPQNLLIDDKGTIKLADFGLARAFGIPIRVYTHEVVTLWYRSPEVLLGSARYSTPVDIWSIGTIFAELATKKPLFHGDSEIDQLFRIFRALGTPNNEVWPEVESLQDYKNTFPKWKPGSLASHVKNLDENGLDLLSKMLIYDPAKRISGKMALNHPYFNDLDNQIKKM
# T1 sequence (P14635 whole entry partner): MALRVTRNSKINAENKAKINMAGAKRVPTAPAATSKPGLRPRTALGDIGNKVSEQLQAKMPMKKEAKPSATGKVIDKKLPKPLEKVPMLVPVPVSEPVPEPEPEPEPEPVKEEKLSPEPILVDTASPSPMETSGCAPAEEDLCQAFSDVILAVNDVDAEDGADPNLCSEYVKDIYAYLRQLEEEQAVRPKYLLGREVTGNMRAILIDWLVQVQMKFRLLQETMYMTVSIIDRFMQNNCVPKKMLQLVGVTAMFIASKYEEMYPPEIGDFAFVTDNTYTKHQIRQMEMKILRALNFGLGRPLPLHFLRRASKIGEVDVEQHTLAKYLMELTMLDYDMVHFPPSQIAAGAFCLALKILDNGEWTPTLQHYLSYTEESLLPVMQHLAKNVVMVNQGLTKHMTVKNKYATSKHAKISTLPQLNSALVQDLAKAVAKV
# Procedure: Recombinant CDK1- and CycB-GST-fusion proteins, purified from baculovirus-infected insect cells (Sf9), were purchased from ProQinase GmbH, Freiburg. Histone IIIS, used as a kinase substrate, is available commercially from the Sigma Company.
# (§1) CDK1/CycB (200 ng/measuring point) was incubated for 10 minutes at 22° C. in the presence of various concentrations of test substances (0 μm, as well as within the range of 0.01-100 μm) in assay buffer [50 mmol of tris/HCl, pH 8.0, 10 mmol of MgCl2, 0.1 mmol of Na ortho-vanadate, 1.0 mmol of dithiothreitol, 0.5 μm of adenosine triphosphate (ATP), 10 μg/measuring point of histone IIIS, 0.2 μCi/measuring point of 33P-gamma ATP, 0.05% NP40, 1.25% dimethyl sulfoxide]. The reaction was stopped by adding EDTA solution (250 mmol, pH 8.0, 15 μl/measuring point).
# (§2) From each reaction batch, 15 μl was applied to P30 filter strips (Wallac Company), and non-incorporated 33P-ATP was removed by subjecting the filter strips to three washing cycles for 10 minutes each in 0.5% phosphoric acid. After the filter strips were dried for one hour at 70° C., the filter strips were covered with scintillator strips (MeltiLex™ A, Wallac Company) and baked for one hour at 90° C. The amount of incorporated 33P (substrate phosphorylation) was determined by scintillation measurement in a gamma-radiation measuring device (Wallac).
# CDK2/CycE = biological target: T2, CDK2/CycE (Homo sapiens, UniProt P24941); experiment: CDK2/CycE kinase assay; type: biochemical; conditions: histone IIIS substrate, 0.5 μm ATP
# T2 construct: GST; purchased ProQinase GmbH, Freiburg; host or cells: baculovirus-infected insect cells (Sf9)
# Procedure: Recombinant CDK2- and CycE-GST-fusion proteins, purified from baculovirus-infected insect cells (Sf9), were purchased by ProQinase GmbH, Freiburg. Histone IIIs, which was used as a kinase substrate, was purchased by the Sigma Company.
# as §1, with “CDK2/CycE (50” for “CDK1/CycB (200”, “^33P-gamma” for “33P-gamma”, “12.5%” for “1.25%”
# as §2, with “^33P-ATP” for “33P-ATP”, “^33P” for “33P”
# [1] = biological target: T3, VEGF receptor tyrosine kinase-2 (Homo sapiens, UniProt P35968); experiment: VEGF receptor-2 kinase assay; type: biochemical; conditions: poly-(Glu4Tyr) substrate, 8 μmol ATP; read-out: VEGF-R2 IC50
# T3 construct: GST; made in house; host or cells: baculovirus-infected insect cells (Sf9)
# T3 sequence (P35968 20-1356): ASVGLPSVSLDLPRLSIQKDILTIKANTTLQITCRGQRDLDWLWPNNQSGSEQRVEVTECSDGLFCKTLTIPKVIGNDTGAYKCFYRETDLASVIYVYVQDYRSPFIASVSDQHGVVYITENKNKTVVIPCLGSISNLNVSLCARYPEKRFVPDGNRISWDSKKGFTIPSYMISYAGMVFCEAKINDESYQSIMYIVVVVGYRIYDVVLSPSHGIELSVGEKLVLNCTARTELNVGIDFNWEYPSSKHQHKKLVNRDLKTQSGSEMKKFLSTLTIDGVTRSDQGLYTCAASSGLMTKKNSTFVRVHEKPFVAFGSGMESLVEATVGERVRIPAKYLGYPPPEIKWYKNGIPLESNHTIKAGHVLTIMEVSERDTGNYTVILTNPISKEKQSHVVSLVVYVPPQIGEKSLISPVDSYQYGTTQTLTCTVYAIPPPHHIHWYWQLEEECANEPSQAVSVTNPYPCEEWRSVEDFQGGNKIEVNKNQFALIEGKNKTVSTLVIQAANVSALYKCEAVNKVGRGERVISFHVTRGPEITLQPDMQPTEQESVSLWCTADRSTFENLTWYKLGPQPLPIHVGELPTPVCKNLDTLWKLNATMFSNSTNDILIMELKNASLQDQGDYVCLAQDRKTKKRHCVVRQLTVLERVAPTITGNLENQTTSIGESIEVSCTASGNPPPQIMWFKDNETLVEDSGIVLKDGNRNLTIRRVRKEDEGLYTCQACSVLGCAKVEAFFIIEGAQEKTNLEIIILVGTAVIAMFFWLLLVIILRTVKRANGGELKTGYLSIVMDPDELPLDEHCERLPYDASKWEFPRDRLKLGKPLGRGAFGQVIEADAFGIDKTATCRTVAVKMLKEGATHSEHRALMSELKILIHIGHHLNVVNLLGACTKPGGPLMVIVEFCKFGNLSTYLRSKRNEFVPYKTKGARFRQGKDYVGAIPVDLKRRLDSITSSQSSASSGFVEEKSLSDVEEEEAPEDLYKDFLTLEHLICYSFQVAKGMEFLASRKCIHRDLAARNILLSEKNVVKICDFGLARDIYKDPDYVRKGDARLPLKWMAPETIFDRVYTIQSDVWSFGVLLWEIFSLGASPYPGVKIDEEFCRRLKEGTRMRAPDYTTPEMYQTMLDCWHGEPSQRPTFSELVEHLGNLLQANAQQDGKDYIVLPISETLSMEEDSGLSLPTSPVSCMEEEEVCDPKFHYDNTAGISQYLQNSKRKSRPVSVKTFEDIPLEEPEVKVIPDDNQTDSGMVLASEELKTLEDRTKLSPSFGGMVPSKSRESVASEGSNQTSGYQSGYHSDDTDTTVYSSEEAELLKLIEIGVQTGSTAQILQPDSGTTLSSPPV
# Procedure: VEGF Receptor-2 Kinase Assay
# Recombinant VEGF receptor tyrosine kinase-2 was purified as a GST fusion protein from baculovirus-infected insect cells (Sf9). Poly-(Glu4Tyr), which was used as a kinase substrate, was purchased by the Sigma Company. VEGF receptor tyrosine kinase (90 ng/measuring point) was incubated for 10 minutes at 22° C. in the presence of various concentrations of test substances (0 μm, as well as within the range of 0.001-30 μm) in 30 μl of assay buffer [40 mmol of Tris/HCl, pH 5.5, 10 mmol of MgCl2, 1 mmol of MnCl2, 3 μmol of Na ortho-vanadate, 1.0 mmol of dithiothreitol, 8 μmol of adenosine trisphosphate (ATP), 0.96 μg/measuring point of poly-(Glu4Tyr), 0.2 μCi/measuring point of 33P-gamma ATP, 1.4% dimethyl sulfoxide]. The reaction was stopped by adding EDTA solution (250 mmol, pH 8.0, 15 μl/measuring point).
# as §2
# [2] = system: MCF7, hormone-independent human breast cancer cells; experiment: Proliferation assay MCF7; type: cell-based; conditions: 96 h, 4 days, crystal violet
# Source text: (§3) Cultivated human tumor cells (MCF7, hormone-independent human breast cancer cells, related to ATCC HTB22; NCI-H460, human non-small-cell lung cancer cells, ATCC HTB-177, DU 145, hormone-independent human prostate cancer cells, ATCC HTB-81; MaTu-MDR, hormone-independent, multiple pharmaceutical agent-resistant human breast cancer cells, EPO-GmbH, Berlin) were flattened out at a density of about 3000-5000 cells/measuring point, depending on the growth rate of the respective cells, in a 96-well multititer plate in 200 μl of the corresponding growth medium. After 24 hours, the cells of one plate (zero-point plate) were colored with crystal violet (see below), while the medium of the other plates was replaced by fresh culture medium (200 μl), to which the test substances were added in various concentrations (0 μm, as well as in the range of 0.01-30 μm; the final concentration of the solvent dimethyl sulfoxide was 0.5%). The cells were incubated for 4 days in the presence of test substances. The cell proliferation was determined by coloring the cells with crystal violet: the cells were fixed by adding 20 μl/measuring point of an 11% glutaric aldehyde solution for 15 minutes at room temperature. After three washing cycles of the fixed cells with water, the plates were dried at room temperature. The cells were colored by adding 100 μl/measuring point of a 0.1% crystal violet solution (the pH was set at 3 by adding acetic acid). After three washing cycles of the colored cells with water, the plates were dried at room temperature. The dye was dissolved by adding 100 μl/measuring point of a 10% acetic acid solution. The extinction was determined by photometry at a wavelength of 595 nm. The change of cell growth, in percent, was calculated by normalization of the measured values to the extinction values of the zero-point plate (=0%) and the extinction of the untreated (0 μm) cells (=100%).
# [3] = system: NCI-H460, human non-small-cell lung cancer cells; experiment: Proliferation assay H460; type: cell-based; conditions: NCI-H460, 96 h, 4 days, crystal violet
# Source text: as §3
# [4] = system: DU 145, hormone-independent human prostate cancer cells; experiment: Proliferation assay DU145; type: cell-based; conditions: DU-145, 96 h, 4 days, crystal violet
# Source text: as §3
# MaTu-ADR = experiment: Proliferation assay MaTu-ADR; type: cell-based; conditions: Homo sapiens, 96 h; MaTu-ADR cells, 4 days, crystal violet
# Source text: as §3
# Human Carboanhydrase-2 = Human Carboanhydrase-2 (Homo sapiens, UniProt P00918); experiment: Carboanhydrase assay; type: biochemical; conditions: 4-nitrophenyl acetate hydrolysis, 60 minutes; read-out: Inhibition of Human Carboanhydrase-2 IC50
# Procedure: 2 μl of the test compounds, dissolved in DMSO (100× the final concentration), in a concentration range of 0.03-10 μm (final), was pipetted as 4× determinations into the holes of a 96-hole microtiter plate. Holes that contained the solvent without test compounds were used as reference values (1. Holes without carboanhydrase for correction of the non-enzymatic hydrolysis of the substrate, and 2. Holes with carboanhydrase for determining the activity of the non-inhibited enzyme).
# 188 μl of assay buffer (10 mmol of Tris/HCl, pH 7.4, 80 mmol of NaCl), with or without 3 units/hole on carboanhydrase I or II, was pipetted into the holes of the microtiter plate.
IC50 (CDK1/CycB),IC50 (CDK2/CycE),IC50 [1],IC50 [2],IC50 [3],IC50 [4],IC50 (Human Carboanhydrase-2),SMILES,IC50 (MaTu-ADR)
12 nM,15 nM,56 nM,120 nM,160 nM,160 nM,6000 nM,Cc1cc(Nc2ncc(Br)c(O[C@H](C)[C@@H](C)O)n2)cc(Br)c1S(N)(=O)=O [Example 7],50 nM
5 nM,10 nM,130 nM,120 nM,< 100 nM,100 nM,,Cc1cc(Nc2ncc(Br)c(N[C@H](C)[C@@H](C)O)n2)cc(Cl)c1S(N)(=O)=O [Example 4],< 100 nM
5 nM,6 nM,19 nM,< 100 nM,50 nM,70 nM,> 10000 nM,Cc1cc(Nc2ncc(Br)c(N[C@H](C)[C@@H](C)O)n2)cc(C)c1S(N)(=O)=O [Example 3],40 nM
< 10 nM,< 10 nM,130 nM,50 nM,40 nM,70 nM,810 nM,"C[C@@H](O)[C@@H](C)Nc1nc(Nc2ccc(S(N)(=O)=O)cc2)ncc1Br [Example 275 from WO 02/096888, 4-[5-Bromo-4-((1R,2R)-2-hydroxy-1-methyl-propylamino)-pyrimidin-2-ylamino]-benzenesulfonamide, reference compound]",20 nM
8 nM,8 nM,39 nM,50 nM,50 nM,50 nM,> 10000 nM,"Cc1cc(Nc2ncc(Br)c(O[C@H](C)[C@@H](C)O)n2)cc(C)c1S(N)(=O)=O [Example 6, 4-[5-Bromo-4-((1R,2R)-2-hydroxy-1-methyl-propoxy)-pyrimidin-2-ylamino]-2,6-dimethyl-benzenesulfonamide]",20 nM
3 nM,2 nM,20 nM,< 100 nM,130 nM,90 nM,> 10000 nM,Cc1cc(Nc2ncc(Br)c(N[C@H](C)C(C)(C)O)n2)cc(C)c1S(N)(=O)=O [Example 2],70 nM
< 10 nM,< 10 nM,250 nM,180 nM,200 nM,150 nM,530 nM,"C[C@@H](Nc1nc(Nc2ccc(S(N)(=O)=O)cc2)ncc1Br)C(C)(C)O [Example 271 from WO 02/096888, 4-[5-Bromo-4-((R)-2-hydroxy-1,2-dimethyl-propylamino)-pyrimidin-2-ylamino]-benzenesulfonamide, reference compound]",< 100 nM
15 nM,14 nM,18 nM,600 nM,300 nM,400 nM,> 10000 nM,"Cc1cc(Nc2ncc(Br)c(N[C@H](C)CO)n2)cc(C)c1S(N)(=O)=O [Example 1, 4-[5-Bromo-4-((R)-2-hydroxy-1-methyl-ethylamino)-pyrimidin-2-ylamino]-2,6-dimethyl-benzenesulfonamide]",400 nM
